Values joined by “and” are separate entries in the source; they are usually repeats but may differ in a detail not shown here. Identical values can stand only once.

For assay [1], the system named is P. aeruginosa strain PA14 biofilms. Kind of assay: Square wave voltammetry of pyocyanin produced by PA14 biofilms in a microfluidic growth chamber during antibiotic exposure. Type of assay: cell-based, Pseudomonas aeruginosa. As to the method:
P. aeruginosa strain PA14 and m-cherry Escherichia coli strain K12 were used for all antibiotic tests performed. Trypticase soy broth (BD 211768) was used as the nutrient source for all bacteria grown in these tests. Colistin sulfate (Adipogen AG-CN2-0065-G001) was dissolved in trypticase soy broth (TSB) at 1 g/L and used as a stock solution. When not in use, the stock solution was stored at 4° C. Polydimethylsiloxane (Ellsworth Adhesives 184 Sil. Elast. Kit 0.5 kg) was used to prepare all microfluidic devices. Disposable three electrode cells (Zensor TE100) were used for all measurements in this study. The electrochemical cells consist of carbon working and counter electrodes with a Ag/AgCl paste reference electrode. Tubing and luer lock fittings for microfluidic connections were purchased from Amazon Supply (B001GMWZM) and Value Plastic (MTLL230). To prevent bacteria from leaving the microfluidic growth chambers, Minisart RC4 0.2 micron regenerated cellulose luer lock syringe filters (17821K) were attached to the inlets and outlets of the devices via 19 gauge luer lock syringes (NE192PL-25). A syringe pump (Harvard Apparatus Fusion 200 211097) was used to control the flow rate of growth media and antibiotic through the microfluidic chamber. Electrochemical measurements were made using a multipotentiostat (CHI 1040C A2728).
Polydimethylsiloxane (PDMS) wells were fabricated from 9 mm×9 mm tape molds made on glass slides (3M Scotch Tape, tape thickness ≈50 μm) using a standard method. […] Inlets and outlets in the wells were drilled and the resulting microfluidic devices were fabricated by irreversibly bonding PDMS to the disposable electrochemical cells using air plasma (Anatech SP-100, 5-7 s at 100 W). The microfluidic channels were filled with trypticase soy broth (TSB) at a flow rate of 10 μL/min. To facilitate complete filling of the chamber (removal of air bubbles), an empty syringe was attached to the outlet. By pulling and releasing vacuum on the outlet, TSB was pulled through the chamber displacing any air bubbles.
For antibiotic testing, cultures of PA14 and E. coli were grown over night in 3 mL of TSB (concentration approximately […]). After overnight growth, samples were centrifuged for 3 min at 10,000 rpm. The supernatant was discarded and the cultures were reconstituted in 3 mL of fresh TSB. After removing the inlet syringe filter, approximately 24 μL of reconstituted cell culture was loaded into the growth chamber at a flow rate of 10 μL/min. […] After overnight growth, flow at 0.1 μL/min was initiated with either TSB or colistin sulfate in TSB and the electrochemical response was monitored. […]

Assay [2] has as its system PA14. Kind of assay: Growth of liquid PA14 cultures plated on cetrimide agar plates containing colistin sulfate. Format: cell-based, Pseudomonas aeruginosa. On the procedure: FIG. 21 illustrates images of PA14 colonies after 20 hours of growth at 37° C. on cetrimide agar plates mixed with different concentrations of colistin sulfate.
Regarding FIG. 21, liquid cultures of PA14, grown over night in 3 mL of TSB, were plated directly onto cetrimide agar plates containing 0, 4, and 100 mg/L of colistin sulfate. These plates were incubated overnight at 37° C. The plates were then inspected for bacterial growth (FIG. 21).

Assay [3] relates to PA14. Kind of assay: Regrowth on TSB agar plates of cells taken from PDMS chambers after colistin sulfate exposure. Format: cell-based, Pseudomonas aeruginosa. The following applies: TSB plate. As to the method: FIG. 12 illustrates PA14 exposed to 100 mg/L and 4 mg/L colistin sulfate for 20 hours within PDMS chambers then spotted onto TSB plates. Photographs of a plate after incubation at 37° C. for A) 4.3 h, B) 6.5 h, and C) 74.3 h (removed from the incubator after 24 h to avoid drying and grown at room temperature (≈23° C.)). Arrows highlight the locations of the first observed PA14 colonies. A vertical line divides the areas on the plate where PA14 exposed to 100 mg/L (left) and 4 mg/L (right) colistin sulfate were spotted.
FIG. 22 illustrates PA14 streaked onto TSB after exposure to 100 mg/L and 4 mg/L colistin for 20 hours within PDMS flow chambers. Photographs show the plate after A) 4.33 h, B) 6.5 h, and C) 74.3 h of incubation. The plate was incubated at 37° C. for the first 24 hours, then grown at room temperature for the remaining time to prevent the agar from drying out.
The qualitative results of the live cell stain are consistent with the culture plate experiments. The live cell concentration in biofilms exposed to 100 mg/L colistin sulfate (FIG. 11B), however, is higher than expected when compared to the reduced rate of colony formation on agar plates (FIG. 12).
Regarding FIG. 22, after exposure to colistin sulpahte at 4 and 100 mg/L flowing at 100 nL/min, the PDMS chambers were peeled from the disposable electrodes. […] Samples were incubated at 37° C., and monitored for growth. […]

Another assay relates to PA14 cells. Kind of assay: Live cell counts (LIVE/DEAD stain, haemocytometer) of biofilm removed from the device after antibiotic exposure. The following applies: PA14 biofilm exposed to 100 mg/L colistin sulfate, compared to 0 and 4 mg/L. Format: cell-based, Pseudomonas aeruginosa. As to the method:
Cell viability after exposure to colistin sulfate was assessed using a LIVE/DEAD staining kit (EMD Chemicals Millipore 50-231-0606). Stains were prepared per manufacturer's operating procedure. After staining, 10 μL of sample was injected into an INCYTO C-chip disposable hemocytometer (DHC-N01). Cells were imaged using a fluorescence microscope, and the number of PA14 cells that were alive after exposure was determined using IMAGE J (ImageJ, U.S. National Institutes of Health, Bethesda, Md., USA, http://imagej.nih.gov/ij/).
The number of living cells measured after exposure to three different concentrations of colistin sulfate were compared (FIG. 11B). After the biofilm was exposed to antibiotic in the device, the PDMS chambers were peeled off and 100 μL of fresh TSB was spotted on the biofilm and pipetted vigorously to remove material from the surface of the electrode. Removed samples were used to measure live cell counts, performed with Millipore 3P Live/Dead Stain, using a haemocytometer. […] A concentration of approximately 4×10^5 live cells/mL was measured in the biofilms not exposed to colistin sulfate. […] A statistically significant reduction in the number of live PA14 cells was measured for samples exposed to 100 mg/L colistin sulfate compared to cells exposed to 0 and 4 mg/L colistin sulfate. […]

The test system of the next assay is P. aeruginosa. The following applies: literature value, cited from earlier work.

For `CC1(C)S[C@@H]2[C@H](NC(=O)[C@H](N)c3ccccc3)C(=O)N2[C@H]1C(=O)O` [ampicillin], in assay [1] (PA14 exposed to 100 mg/L ampicillin in TSB under flow), the “effect on PYO production (SWV response)” value is on record as “no effect on PYO production”.

On to colistin sulfate, for which the entries for the “bacterial growth on plate after overnight incubation at 37° C.” value with PA14 [2] (cetrimide agar containing 4 mg/L colistin sulfate) and with PA14 [2] (cetrimide agar containing 100 mg/L colistin sulfate) were “showed growth” and “showed no colony formation”, respectively. Also, the “incubation time after which growth (visible colonies) was observed” value with PA14 [3] (cells exposed to 4 mg/L colistin sulfate for 20 hours in chambers, 37° C.) was 4.3 h and 4 h. In addition, the “growth after 6.5 h of incubation” value in the assay on PA14 [3] (cells exposed to 100 mg/L colistin sulfate for 20 hours in chambers) is “No growth was observed”. In addition, the “reduction in the number of living cells” value in the assay on PA14 cells is reported as roughly 2 ×. Besides, in assay [1] (PA14 biofilm exposed to 4 mg/L colistin sulfate, ANOVA), the “average response (peak current, PYO production) compared to biofilms exposed to only TSB” value is reported as “no significant difference”. Also, in assay [1] (PA14 biofilm exposed to 100 mg/L colistin sulfate in TSB, flow 100 nL/min, compared to control cells), the “average percent decrease in the maximum peak current at the end of testing” value is roughly 82%. For the same compound, the “average peak current compared against the control (ANOVA)” value in assay [1] (PA14 exposed to 16 and 100 mg/L colistin sulfate, P<0.05) is “significantly lower”. For the same compound, the “reported MIC (High MIC)” value in the assay on P. aeruginosa (higher MIC) was 16 µg/mL. The “reported MIC (low MIC)” value in the assay on P. aeruginosa (lower MIC) was 4 µg/mL.

The values above are taken from US10316348B2, “Diagnostic system and process for rapid bacterial infection diagnosis” (priority 2014, dated 2019).
